Experimental data reported in PubChem BioAssay AID602211 (Sanford-Burnham Center for Chemical Genomics, 2012).
Activity calls are given as the source filed them.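 The calls were made as follows: active = mean IC50 at or below 10 µM; inactive = the rest.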

test system: H9c2 cardiomyocytes, H2O2 protection, ATPLite viability, 2 h; test: H2O2-induced H9c2 cell death suppression – ATPLite luminescence, set 2, dose response (AID 602211);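 also: potency is for protection so actives keep ATP signal up against peroxide killing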

SMILES	IC50
COc1ccc(-c2nc(NC(=O)c3ccc(OCC(=O)N4CCOCC4)c(OC)c3)sc2C)cc1	> 79 µM (inactive)
O=C(NCC(=O)N(Cc1ccccc1)C(C(=O)NC1CCCCC1)c1ccco1)c1ccco1 (stereo not drawn)	38.7 µM (inactive)
COc1cc(C(=O)Nc2ccc(NC(=O)c3cccc(Cl)c3)nc2)cc(OC)c1OC	2.96 µM
CC(=O)Nc1ccc(-c2csc(NC(=O)Nc3ccccc3)n2)cc1	40.6 µM (inactive)
Nc1c(C(=O)N/N=C/c2cccnc2)oc2nc(-c3ccco3)cc(-c3ccco3)c12	2.45 µM
COc1ccc(/C=C/C(=O)c2ccccc2O)cc1CN1CCOCC1	7.14 µM
CCC(CC)C(=O)Nc1cc(C)c2c(=O)oc3ccccc3c2n1	2.05 µM
COc1cccc(Nc2nc3ccccc3n3cnnc23)c1	9.05 µM
Cc1ccc(NC(=O)c2cc(-c3cccs3)nc3ccccc23)nc1	8.28 µM
COc1ccc(-c2ccc3c(c2)S(=O)(=O)c2cccc(C(=O)N4CCN(c5c(Cl)cncc5Cl)CC4)c2C3=O)cc1OC	4.27 µM
COc1ccc(NC(=O)c2oc3ccc(S(=O)(=O)N4CCOCC4)cc3c2C)cc1	0.815 µM
O=C(Nc1cc(S(=O)(=O)N2CCOCC2)ccc1N1CCCCC1)c1cc(-c2ccccn2)nc2ccccc12	3.38 µM
COc1cccc(C(=O)Nc2c(C(N)=O)oc3ccccc23)c1	8.36 µM
